Test results from ChEMBL document CHEMBL4152270, “Free radical rearrangement synthesis and microbiological evaluation of novel 2-sulfoether-4-quinolone scaffolds as potential antibacterial agents” (Eur J Med Chem, 2018).
In brackets after ≈: the same amount, converted by molar mass. Activity calls are given as the source filed them. The rule behind the calls is not given here.

Key:
[1] = test system: Staphylococcus aureus; test: Antimicrobial activity against Staphylococcus aureus after 18 to 20 hrs by micro broth dilution method; type: functional
[2] = test system: Escherichia coli; test: Antimicrobial activity against Escherichia coli after 18 to 20 hrs by micro broth dilution method; type: functional
[3] = test system: Pseudomonas aeruginosa; test: Antimicrobial activity against Pseudomonas aeruginosa after 18 to 20 hrs by micro broth dilution method; type: functional
[4] = test system: Candida albicans; test: Antimicrobial activity against Candida albicans after 18 to 20 hrs by micro broth dilution method; type: functional
[5] = test system: Bacillus cereus; test: Antimicrobial activity against Bacillus cereus after 18 to 20 hrs by micro broth dilution method; type: functional
[6] = test system: Bacillus cereus; test: Bactericidal activity against Bacillus cereus after 24 hrs by micro broth dilution method; type: functional
[7] = test system: Staphylococcus aureus; test: Bactericidal activity against Staphylococcus aureus after 24 hrs by micro broth dilution method; type: functional
[8] = test system: Staphylococcus aureus; test: Antimicrobial activity against methicillin-resistant Staphylococcus aureus after 18 to 20 hrs by micro broth dilution method; type: functional
[9] = biological target: DNA gyrase subunit A (Staphylococcus aureus, UniProt P20831); test: Inhibition of Staphylococcus aureus DNA gyrase subunit A supercoiling activity using relaxed pBR322 DNA as substrate after 60 mins by agarose gel electrophoresis
DNA gyrase subunit A, sequence (P20831 whole entry): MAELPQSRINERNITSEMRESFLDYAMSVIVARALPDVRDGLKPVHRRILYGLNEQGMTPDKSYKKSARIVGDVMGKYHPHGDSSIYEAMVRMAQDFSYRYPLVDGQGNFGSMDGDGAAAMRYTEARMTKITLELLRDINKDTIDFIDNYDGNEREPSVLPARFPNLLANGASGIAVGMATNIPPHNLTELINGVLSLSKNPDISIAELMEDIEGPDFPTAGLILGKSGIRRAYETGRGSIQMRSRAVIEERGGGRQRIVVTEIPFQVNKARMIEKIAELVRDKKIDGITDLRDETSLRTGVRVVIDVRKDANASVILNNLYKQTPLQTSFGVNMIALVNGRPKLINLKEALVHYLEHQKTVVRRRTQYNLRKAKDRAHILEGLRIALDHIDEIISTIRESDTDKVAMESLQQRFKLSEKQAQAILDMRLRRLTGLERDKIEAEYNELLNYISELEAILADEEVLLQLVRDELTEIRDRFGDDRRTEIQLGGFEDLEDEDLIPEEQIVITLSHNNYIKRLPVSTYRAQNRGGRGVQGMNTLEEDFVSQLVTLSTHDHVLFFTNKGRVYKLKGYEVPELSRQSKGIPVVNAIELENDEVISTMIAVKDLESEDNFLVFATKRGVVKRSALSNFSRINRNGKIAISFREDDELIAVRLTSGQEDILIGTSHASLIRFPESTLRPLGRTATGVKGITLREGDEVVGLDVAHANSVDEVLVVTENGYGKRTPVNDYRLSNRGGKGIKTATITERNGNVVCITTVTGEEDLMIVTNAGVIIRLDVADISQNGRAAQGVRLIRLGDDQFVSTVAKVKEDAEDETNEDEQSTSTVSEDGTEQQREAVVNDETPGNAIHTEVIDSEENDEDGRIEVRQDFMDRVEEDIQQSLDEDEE

[10] = test system: Staphylococcus aureus; test: Growth inhibition of Staphylococcus aureus at 0.25 to 0.5 times MIC after 24 hrs; type: functional, organism-based
[11] = test system: Staphylococcus aureus; test: Growth inhibition of Staphylococcus aureus at 1 to 4 times MIC after 24 hrs; type: functional, organism-based
[12] = test system: Staphylococcus aureus; test: Induction of cell wall damage in Staphylococcus aureus ATCC 6538 assessed as blemishes on cell wall at 0.8 uM after 24 hrs by transmission electron microscopy; type: functional, organism-based
[13] = test system: Staphylococcus aureus; test: Induction of cell death in Staphylococcus aureus ATCC 6538 at 0.8 uM after 24 hrs by transmission electron microscopy; type: functional, organism-based
[14] = test system: Staphylococcus aureus; test: Induction of cell wall damage in Staphylococcus aureus ATCC 6538 assessed as emergence of solute loss at 0.8 uM after 24 hrs by transmission electron microscopy; type: functional, organism-based
[15] = test system: Staphylococcus aureus; test: Induction of morphological changes in Staphylococcus aureus ATCC 6538 assessed as shrinkage of cell morphology at 0.8 uM after 24 hrs by transmission electron microscopy; type: functional, organism-based
[16] = test system: Staphylococcus aureus; test: Induction of morphological changes in Staphylococcus aureus ATCC 6538 assessed as cell wall swelling at 0.8 uM after 24 hrs by transmission electron microscopy; type: functional, organism-based

Molecule | MIC [1] | MIC [2] | MIC [3] | MIC [4] | MIC [5] | MBC [6] | MBC [7] | MIC [8] | IC50 [9] | growth inhibition (GI) [10] | growth inhibition (GI) [11] | Activity [12] | Activity [13] | Activity [14] | Activity [15] | Activity [16]
CC(=O)c1c(O)[nH]c2ccc(C(F)(F)F)cc2c1=O | > 200 µM | > 200 µM | > 200 µM | > 200 µM | > 200 µM | – | – | – | – | – | – | – | – | – | – | –
GENTAMICIN | 0.8 µM | 0.125 µM | 1 µM | – | 1.6 µM | 3.2 µM | 3.2 µM | > 200 µM | – | – | – | – | – | – | – | –
CSc1[nH]c2cc(Br)ccc2c(=O)c1C(C)=O | 12.5 µM (≈ 3.9 µg/mL) | > 200 µM | > 200 µM | > 200 µM | 200 µM (≈ 62.4 µg/mL) | – | – | – | – | – | – | – | – | – | – | –
CSc1[nH]c2ccccc2c(=O)c1C(C)=O | > 200 µM | > 200 µM | > 200 µM | > 200 µM | > 200 µM | – | – | – | – | – | – | – | – | – | – | –
CSc1[nH]c2c(Cl)cc([N+](=O)[O-])cc2c(=O)c1C(C)=O | 12.5 µM (≈ 3.91 µg/mL) | > 200 µM | > 200 µM | > 200 µM | 6.25 µM (≈ 1.95 µg/mL) | > 200 µM | > 200 µM | > 200 µM | 80.3 µM | – | – | – | – | – | – | –
CSc1[nH]c2cc(C(F)(F)F)c(C#N)cc2c(=O)c1C(C)=O | 0.8 µM (≈ 0.261 µg/mL) | > 200 µM | > 200 µM | 200 µM | 1.6 µM (≈ 0.522 µg/mL) | 25 µM (≈ 8.16 µg/mL) | 25 µM (≈ 8.16 µg/mL) | > 200 µM | 6.47 µM | inactive | Active | – | – | – | – | –
CSc1[nH]c2c(Cl)cc(C(F)(F)F)cc2c(=O)c1C(C)=O | 0.8 µM (≈ 0.269 µg/mL) | > 200 µM | > 200 µM | > 200 µM | 1.6 µM (≈ 0.537 µg/mL) | 6.25 µM (≈ 2.1 µg/mL) | 6.25 µM (≈ 2.1 µg/mL) | > 200 µM | 8.01 µM | inactive | Active | – | – | – | – | –
CCSc1[nH]c2ccc(C(F)(F)F)cc2c(=O)c1C(C)=O | 6.25 µM (≈ 1.97 µg/mL) | > 200 µM | > 200 µM | > 200 µM | 25 µM (≈ 7.88 µg/mL) | 50 µM (≈ 15.8 µg/mL) | 25 µM (≈ 7.88 µg/mL) | > 200 µM | 16.2 µM | – | – | – | – | – | – | –
COc1ccc2[nH]c(SC)c(C(C)=O)c(=O)c2c1 | > 200 µM | > 200 µM | > 200 µM | > 200 µM | > 200 µM | – | – | – | – | – | – | – | – | – | – | –
CSc1[nH]c2c(Br)cccc2c(=O)c1C(C)=O | 6.25 µM (≈ 1.95 µg/mL) | > 200 µM | > 200 µM | > 200 µM | > 200 µM | > 200 µM | 25 µM (≈ 7.8 µg/mL) | > 200 µM | – | – | – | – | – | – | – | –
COc1ccc(C(F)(F)F)c2c(=O)c(C(C)=O)c(SC)[nH]c12 | > 200 µM | > 200 µM | > 200 µM | > 200 µM | > 200 µM | – | – | – | – | – | – | – | – | – | – | –
CSc1[nH]c2ccc(C)cc2c(=O)c1C(C)=O | > 200 µM | > 200 µM | > 200 µM | > 200 µM | > 200 µM | – | – | – | – | – | – | – | – | – | – | –
CSc1[nH]c2c(C)cccc2c(=O)c1C(C)=O | > 200 µM | > 200 µM | > 200 µM | > 200 µM | > 200 µM | – | – | – | – | – | – | – | – | – | – | –
CSc1[nH]c2ccc(Br)cc2c(=O)c1C(C)=O | 25 µM (≈ 7.8 µg/mL) | > 200 µM | > 200 µM | > 200 µM | 200 µM (≈ 62.4 µg/mL) | – | – | – | – | – | – | – | – | – | – | –
OC(Cn1cncn1)(Cn1cncn1)c1ccc(F)cc1F [FLUCONAZOLE] | – | – | – | 1 µg/mL | – | – | – | – | – | – | – | – | – | – | – | –
CSc1[nH]c2c(F)ccc(C(F)(F)F)c2c(=O)c1C(C)=O | 0.8 µM (≈ 0.255 µg/mL) | > 200 µM | > 200 µM | 200 µM | 3.12 µM (≈ 0.998 µg/mL) | 6.25 µM (≈ 2 µg/mL) | 6.25 µM (≈ 2 µg/mL) | > 200 µM | 2.47 µM | – | – | – | – | – | – | –
CN(C)[C@@H]1C(O)=C(C(N)=O)C(=O)[C@@]2(O)C(O)=C3C(=O)c4c(O)cccc4[C@@](C)(O)[C@H]3C[C@@H]12 [TETRACYCLINE] | 0.0325 µM (≈ 0.0144 µg/mL) | 0.25 µM (≈ 0.111 µg/mL) | 2 µM (≈ 0.889 µg/mL) | – | 1.6 µM (≈ 0.711 µg/mL) | 3.2 µM (≈ 1.42 µg/mL) | 0.125 µM (≈ 0.0556 µg/mL) | 200 µM (≈ 88.9 µg/mL) | – | – | – | – | – | – | – | –
COc1cccc2c(=O)c(C(C)=O)c(SC)[nH]c12 | > 200 µM | > 200 µM | > 200 µM | > 200 µM | > 200 µM | – | – | – | – | – | – | – | – | – | – | –
CSc1[nH]c2c(Cl)cccc2c(=O)c1C(C)=O | > 200 µM | > 200 µM | > 200 µM | > 200 µM | > 200 µM | – | – | – | – | – | – | – | – | – | – | –
C[C@@H]1[C@H](O)[C@@H](C)/C=C/C=C/C=C/C=C/C=C/C=C/C=C/[C@H](O[C@@H]2O[C@H](C)[C@@H](O)[C@H](N)[C@@H]2O)C[C@@H]2O[C@](O)(C[C@@H](O)C[C@@H](O)[C@H](O)CC[C@@H](O)C[C@@H](O)CC(=O)O[C@H]1C)C[C@H](O)[C@H]2C(=O)O [AMPHOTERICIN B] | – | – | – | 0.2 µg/mL | – | – | – | – | – | – | – | – | – | – | – | –
CSc1[nH]c2ccc(C(F)(F)F)cc2c(=O)c1C(C)=O | 6.25 µM (≈ 1.88 µg/mL) | > 200 µM | > 200 µM | > 200 µM | 50 µM (≈ 15.1 µg/mL) | > 200 µM | 25 µM (≈ 7.53 µg/mL) | > 200 µM | – | – | – | – | – | – | – | –
CSc1[nH]c2c(C(F)(F)F)ccc(C(F)(F)F)c2c(=O)c1C(C)=O | 0.8 µM (≈ 0.295 µg/mL) | > 200 µM | > 200 µM | 200 µM | 1.6 µM (≈ 0.591 µg/mL) | 6.25 µM (≈ 2.31 µg/mL) | 6.25 µM (≈ 2.31 µg/mL) | > 200 µM | 1.92 µM | inactive | Active | Active | Active | Active | Active | Active
CC(=O)c1c([S+](C)[O-])[nH]c2ccc(C(F)(F)F)cc2c1=O (stereo not drawn) | 12.5 µM (≈ 3.97 µg/mL) | > 200 µM | > 200 µM | > 200 µM | 3.12 µM (≈ 0.992 µg/mL) | 50 µM (≈ 15.9 µg/mL) | 50 µM (≈ 15.9 µg/mL) | > 200 µM | – | – | – | – | – | – | – | –
CSc1[nH]c2cc(C(F)(F)F)ccc2c(=O)c1C(C)=O | 3.12 µM (≈ 0.942 µg/mL) | > 200 µM | > 200 µM | > 200 µM | 50 µM (≈ 15.1 µg/mL) | > 200 µM | 6.25 µM (≈ 1.88 µg/mL) | > 200 µM | – | – | – | – | – | – | – | –
CC1COc2c(N3CCN(C)CC3)c(F)cc3c(=O)c(C(=O)O)cn1c23 (stereo not drawn) [OFLOXACIN] | 0.125 µM (≈ 0.0452 µg/mL) | 0.5 µM (≈ 0.181 µg/mL) | 4 µM (≈ 1.45 µg/mL) | – | 0.8 µM (≈ 0.289 µg/mL) | 1.6 µM (≈ 0.578 µg/mL) | 0.5 µM (≈ 0.181 µg/mL) | 100 µM (≈ 36.1 µg/mL) | – | – | – | – | – | – | – | –
CSc1[nH]c2c(Cl)ccc(C(F)(F)F)c2c(=O)c1C(C)=O | 0.8 µM (≈ 0.269 µg/mL) | > 200 µM | > 200 µM | > 200 µM | 1.6 µM (≈ 0.537 µg/mL) | 12.5 µM (≈ 4.2 µg/mL) | 12.5 µM (≈ 4.2 µg/mL) | > 200 µM | – | inactive | Active | – | – | – | – | –
CSc1[nH]c2ccc(OC(F)(F)F)cc2c(=O)c1C(C)=O | 3.12 µM (≈ 0.992 µg/mL) | > 200 µM | > 200 µM | > 200 µM | 12.5 µM (≈ 3.97 µg/mL) | 25 µM (≈ 7.93 µg/mL) | 25 µM (≈ 7.93 µg/mL) | > 200 µM | – | – | – | – | – | – | – | –
